Literature values as cited in US8748589B2, “Complex crystalline sugar comprising D-psicose and D-allose and process for production of the same” (priority 2005, dated 2014).

System: L-rhamnose isomerase
Settings: for inhibition of L-rhamnose isomerase activity by coexisting chelating agent: chelating agent present at the time of measurement of the activity

## O=C(O)CN(CCN(CC(=O)O)CC(=O)O)CC(=O)O [EDTA]
  inhibition of L-rhamnose isomerase activity by coexisting chelating agent: Almost no activity was inhibited

## O=C(O)CN(CCOCCOCCN(CC(=O)O)CC(=O)O)CC(=O)O [EGTA]
  inhibition of L-rhamnose isomerase activity by coexisting chelating agent: Almost no activity was inhibited

## [Co+2] [cobalt ion]
1 mM cobalt ion
  inhibition of L-rhamnose isomerase activity by metal ion: About 30%
